One compound from patent EP0845265A1, “MUCOSAL P[…] PHYSIOLOGICALLY ACTIVE PEPTIDE” (Asahi Kasei Kogyo Kabushiki Kaisha, priority 1995, dated 1997) can be followed below.

The nature of this data set: In vivo absorption of elcatonin by rats (nasal administration, serum level by RIA). Details: species or system Wistar rats. The following applies: diltiazem hydrochloride per se, without absorption promotor. Here is the method: In vivo absorption of elcatonin by rats :
Wistar rats, male (Japan SLC, body weight 200 - 250 g), fasting overnight, 4 rats in a group, were anesthetized by pentobarbital (Nembutal inj. Dainippon Pharm. Co., Japan).
Polyethylene tube was inserted into the trachea by incised in the corvex. Tube was inserted into postnasal space after esophageal incision. Administration was conducted by pouring drug solution 25 µl prepared in use using micropipette into the right naris. Blood sample 200 µl was collected from femoral vein time dependently before and after administration of drug. Blood sample was centrifuged (15,000 rpm/10 min./5°C) and stored at -30 °C before analysis.
Elcatonin 20 units/ml (in physiological saline) 0.25 ml was subcutaneously administered for comparison with absorption rate (comparison 1).
Blood level was assayed by RIA.
Absorption rate is calculated by using area under the curve (AUC) in the comparison 1 from the following equation. Absorption rate (%) =(AUC (I.N.))/(AUC (S.C.))×(dose (S.C.))/(dose (I.N.))×100 [formula] wherein I. N. : nasal administraion and S.C. : subcutaneous administration. As clearly shown in Fig. 2, absorption of elcatonin was enhanced in above 2 fold through nasal mucosa by administering with absorption promotor sodium glycocholate and calciuim channel blocker as compared with sodium glycocholic acid per se.

Counter-ions that a name gives are not always drawn.

As to `COc1ccc([C@@H]2Sc3ccccc3N(CCN(C)C)C(=O)[C@@H]2OC(C)=O)cc1` [diltiazem hydrochloride, Diltiazem hydrochloride], the absorption promoting action entry is given as “no absorption promoting action”.
